Patent US9937250B2, “Immunogenic tumor associated stromal cell antigen peptides and methods of their use” (University of Pittsburgh—Of the Commonwealth System of …, priority 2011, dated 2018)

Tested on: MC38 colon carcinoma
Assay: MC38 protection (prophylactic vaccination) model
Assay type: in vivo, HHD mice
Settings: immunization days -14 and -7, tumor challenge day 0 (FIG. 9B)
Text: FIGS. 9A-9B show a series of graphs illustrating induction of specific/protective CD8^+ T cells reactive against TASA as a consequence of DC/peptide-based vaccination. In FIG. 9A, HHD mice (five animals/cohort) were vaccinated twice (d-14, d-7) subcutaneously with PBS or with isologous DC.IL12 pulsed with PBS or synthetic peptides (Table 6) derived from the indicated TASA. In cases where more than 1 peptide was identified for a given target antigen, an equimolar pool of the indicated peptides (each 10 μM) was pulsed onto DC.IL12 and used for vaccination in the relevant cohort. One week after the second immunization, spleens were harvested and splenic CD8^+ T cells isolated using MACS-beads (Miltenyi). T cells were stimulated in vitro for 48 h using the HLA-A2^+ T2 cell line pulsed with relevant TASA vs. irrelevant HIV-nef190-198 ([…]; ref. 24) peptides. Cell-free supernatants were then recovered and IFN-γ levels by ELISA. Data are reported as mean+/−SD for triplicate ELISA determinations, and are representative of 3 independent experiments performed. *p<0.05 vs. HIV-nef control peptide responses. In FIG. 9B, HHD mice were vaccinated twice (days −14 and −7; right flank) subcutaneously with PBS or with isologous DC.IL12 pulsed with PBS or synthetic TASA peptides as indicated in FIG. 1A. In cases where more than 1 peptide is identified for a given target antigen, an equimolar pool of the indicated peptides (each 10 μM) was pulsed onto DC.IL12 and used for vaccination in the relevant cohort. One week after the booster vaccine (i.e. day zero), animals were challenged subcutaneously on their left flank with 2×10^6 MC38 colon carcinoma cells. Tumor growth was then monitored every 3-4 days through day 24. All data represent mean tumor area (in mm^2)+/−SD determined from 5 mice/cohort, and are representative of three independent experiments performed. *p<0.05 versus DC only on the indicated days.
Vaccine Experiments. For prophylactic experiments, HHD mice were immunized subcutaneously on the right flank with 100 μl PBS or PBS containing 10^6 syngenic DC.IL12 cells that had been untreated or pre-pulsed for 4 h at 37° C. with 10 μM synthetic peptide(s). Immunizations occurred on days −14 and −7, with mice subsequently receiving injections of MC38 (2×10^6) tumor cells in the left flank on d0. In all cases, treatment groups contained 5 mice per cohort. For analysis of tumor cellular composition in repeat experiments, MC38 tumors were isolated by surgical resection 10 days after tumor inoculation and prepared for fluorescence imaging, as described below. […] Mice were then untreated or treated with control, syngenic DC.IL12 or DC.IL12 (10^6 cells injected subcutaneously in the left flank on days 7 and 14) pulsed with synthetic TBVA peptides. In some assays, as indicated, in vivo antibody depletions (on days 6, 13 and 20 post-tumor inoculation to assess early involvement or on days 60 and 67 or 180 and 187 to assess late involvement) of protective CD4^+ T cells or CD8^+ T cells were performed and monitored as previously described (Zhao et al., Mol Ther., 19:805-814, 2011). In all cases, tumor size (area) was monitored every 3-4 days and is reported as mean+/−SD in mm^2.
The DLK1, EphA2, HBB, NG2, NRP1, NRP2, PDGFRβ, PSMA, RGS5, TEM1, VEGFR1 and VEGFR2 antigens were expressed in situ by blood vessel cells in the MC38 colon carcinoma TME (FIG. 14). Protection of HHD mice against a challenge with HLA-A2^neg MC38 tumor cells injected subcutaneously on day zero was assayed with immunization with TBVA-derived peptides on days −14 and −7. […]

Substance | Protection against HLA-A2neg MC38 tumor challenge
EphA2: EphA2-derived peptide 883-891 pulsed onto DC or DC.IL12 (TLADFDPRV; listed as Homo sapiens) | effective in preventing HLA-A2^neg MC38 tumor establishment or they resulted in the regression of tumors
TEM1: TEM1-derived peptide 691-700 pulsed onto DC or DC.IL12 (LLVPTCVFLV; listed as Homo sapiens) | effective in preventing HLA-A2^neg MC38 tumor establishment or they resulted in the regression of tumors
RGS5: RGS5-derived peptide 5-13 pulsed onto DC or DC.IL12 (LAALPHSCL; listed as Homo sapiens) | effective in preventing HLA-A2^neg MC38 tumor establishment or they resulted in the regression of tumors
